Test results published in ChEMBL document CHEMBL3396962, “Design and synthesis of N-methylpyrimidone derivatives as HIV-1 integrase inhibitors” (Bioorg Med Chem, 2015).
pEC50, pIC50: −log10 of the molar value.

Columns and labels:
[1] = target: Human immunodeficiency virus type 1 integrase (Human immunodeficiency virus 1, UniProt Q7ZJM1); assay: Inhibition of HIV-1 integrase after 1 hr by strand transfer activity assay
[2] = system: Human immunodeficiency virus 1; assay: Antiviral activity against HIV-1 infected in human TZM-bl cells after 40 to 48 hrs by beta-galactosidase assay; type: functional, organism-based; settings: Human immunodeficiency virus 1, TZM-bl

Chain of Human immunodeficiency virus type 1 integrase (Q7ZJM1 whole entry): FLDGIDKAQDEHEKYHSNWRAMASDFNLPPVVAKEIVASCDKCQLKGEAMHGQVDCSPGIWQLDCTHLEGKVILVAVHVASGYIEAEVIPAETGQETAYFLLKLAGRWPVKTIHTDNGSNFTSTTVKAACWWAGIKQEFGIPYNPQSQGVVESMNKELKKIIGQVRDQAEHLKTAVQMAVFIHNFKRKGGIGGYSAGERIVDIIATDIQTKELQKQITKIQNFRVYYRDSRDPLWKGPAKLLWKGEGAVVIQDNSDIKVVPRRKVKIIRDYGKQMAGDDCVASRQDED

| pIC50 [1] | pEC50 [2] | Structure (SMILES) |
| --- | --- | --- |
| < 4.00 | – | COc1c(C(=O)N2CCN(CCCNC(=O)c3ccc(O)c(O)c3)CC2)nc(Cc2ccc(O)cc2)n(C)c1=O |
| 5.62 | 5.37 | COc1c(C(=O)N2CCN(CCCNC(=O)c3cc(O)c(O)c(O)c3)CC2)nc(Cc2ccc(Cl)cc2)n(C)c1=O |
| 5.46 | 5.56 | COc1c(C(=O)N2CCN(CCCNC(=O)c3cc(O)c(O)c(O)c3)CC2)nc(Cc2ccc(C)cc2)n(C)c1=O |
| 5.60 | – | COc1c(C(=O)N2CCN(CCNC(=O)c3cc(O)c(O)c(O)c3)CC2)nc(Cc2ccc(F)cc2)n(C)c1=O |
| < 4.00 | – | COc1c(C(=O)N2CCN(CCCNC(=O)c3ccc(O)c(O)c3)CC2)nc(Cc2ccc(F)cc2)n(C)c1=O |
| 4.65 | – | COc1c(C(=O)N2CCN(CCCNC(=O)c3cc(O)c(O)c(O)c3)CC2)nc(Cc2ccc(Cl)c(Cl)c2)n(C)c1=O |
| 6.15 | – | COc1c(C(=O)N2CCN(CCNC(=O)c3cc(O)c(O)c(O)c3)CC2)nc(Cc2ccc(O)cc2)n(C)c1=O |
| 4.72 | 5.36 | COc1c(C(=O)N2CCN(CCCNC(=O)c3cc(O)c(O)c(O)c3)CC2)nc(Cc2ccc(F)cc2)n(C)c1=O |
| < 4.00 | – | COc1c(C(=O)N2CCN(CCCNC(=O)c3ccc(O)c(O)c3)CC2)nc(Cc2ccccc2)n(C)c1=O |
| 6.05 | 5.95 | COc1c(C(=O)N2CCN(CCCNC(=O)c3cc(O)c(O)c(O)c3)CC2)nc(Cc2ccccc2)n(C)c1=O |
| 4.73 | – | COc1c(C(=O)N2CCN(CCNC(=O)c3cc(O)c(O)c(O)c3)CC2)nc(Cc2ccccc2)n(C)c1=O |
